According to patent US20100063085A1, “METHOD OF TREATING LEARNING IMPAIRMENT IN DOWN'S SYNDROME SUBJECTS” (University Court of The University of Dundee, priority 2008, published 2010):
Like-named read-outs stand apart in the source and are kept apart here.

Legend:
Assay type in all cases: biochemical
[1] = target: JNK/SAPK1c (Homo sapiens, UniProt P45983); assay: JNK/SAPK1c 33P kinase assay; conditions: read-out: JNK/SAPK1c activity as percentage of control without inhibitor
Method: (§1) All assays (25.5 μl) were carried out at room temperature (21° C.) and were linear with respect to time and enzyme concentrations under the conditions used. Assays were performed for 30 minutes except assays for LCK and PKB which were performed for 15 minutes using Multidrop Micro reagent dispensers (Thermo Electron Corporation, Waltham, Mass. 02454, USA) in a 96-well format. The concentration of […] [γ-^33P] ATP (800 cpm/pmol) in the assays was one of three concentrations (5, 20 or 50 μM) in order to be at or below Km for ATP for the enzyme. Assays were initiated with MgATP and stopped by addition of 5 μl of 0.5M orthophosphoric acid. Assays were then harvested onto P81 filterplates using a unifilter harvester (PerkinElmer, Boston, Mass. 02118, USA), with a wash buffer of 50 mM orthophosphoric acid. Filterplates were then air dried overnight. 10 μl of Microscint O was added per well prior to counting for radioactivity.
(§2) MKK1, JNK/SAPK1c, SAPK2a/p38, SAPK2b/p38β2, SAPK3/p38γ, SAPK4/p38δ, MAPK2/ERK2, MAPKAP-K1β, MAPKAP-K2, MSK1, PRAK, PKA, PKCα, PDK1, SGK, p70S6K, GSK3β, ROCK-II, PRK2, AMPK, CHK1, CHK2, CK2, PHK, LCK, were assayed according to Davies et al., (Davies, S. P., Reddy, H., Caivano, M. and Cohen, P. Biochem. J. 351, 95-105, 2000.
(§3) CSK and CDK2/cyclinA, were assayed according to Bain et al. (Bain J, McLauchlan H, Elliott M, Cohen P. Biochem J. 371, 199-204, 2003., except that ATP concentrations were either 5, 20 or 50 micromolar so that they were at or below the Km for ATP. The ATP concentrations used were as follows, 5 μM for assays of MKK1, SAPK3, SAPK4, GSK3β, PRK2 CK2 20 μm for assays of JNK, SAPK2β, MAPKAP-K2, MSK1, PRAK, PKA, […], PDK1, SGK, p70S6K, ROCK-II, CHK1, CHK2, CSK, CDK2, and 50 μM for assays of SAPK2a, MAPK2/ERK2, AMPK, LCK, PHK and MAPKAP-K1β.

[2] = target: T1, SAPK4/p38d (Homo sapiens, UniProt O15264); assay: SAPK4/p38d 33P kinase assay; conditions: read-out: SAPK4/p38d activity as percentage of control without inhibitor
T1 sequence (O15264 1-365): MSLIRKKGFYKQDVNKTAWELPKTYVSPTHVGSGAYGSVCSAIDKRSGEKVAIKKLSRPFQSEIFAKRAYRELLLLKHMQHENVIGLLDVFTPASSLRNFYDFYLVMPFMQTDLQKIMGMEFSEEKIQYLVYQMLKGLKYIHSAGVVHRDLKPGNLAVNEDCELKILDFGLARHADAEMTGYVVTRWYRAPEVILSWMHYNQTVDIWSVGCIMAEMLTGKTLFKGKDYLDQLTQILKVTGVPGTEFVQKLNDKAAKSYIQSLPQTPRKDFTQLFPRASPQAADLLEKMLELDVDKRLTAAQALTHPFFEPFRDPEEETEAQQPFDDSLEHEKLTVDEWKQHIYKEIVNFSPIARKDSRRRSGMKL
Method: as §1, §2, §3

[3] = target: T2, DYRK1a (Homo sapiens, UniProt Q13627); assay: biochemical; conditions: for remaining activity at 1 µM / remaining activity at 10 µM: read-out: DYRK1a activity as percentage of control without inhibitor
T2 construct: made in house
Method: DYRK1A (5-20 mU of diluted in 50 mM Tris pH 7.5, 0.1 mM EGTA) was assayed against Woodtide ([…]) in a final volume of 25.5 μl containing 50 mM Tris pH 7.5, 0.1 mM EGTA, 350 uM substrate peptide, 10 mM magnesium acetate and 0.5 μl inhibitor and incubated at room temperature for 5 mins, followed by the addition of 0.05 mM [33P-gamma-ATP] (50-1000 cpm/pmole) and incubated for 30 mins at room temperature. Assays were stopped by addition of 5 μl of 0.5 M (3%) orthophosphoric acid then harvested onto P81 Unifilter plates with a wash buffer of 50 mM orthophosphoric acid. Filterplates were then air dried overnight. 10 μl of Microscint O was added per well prior to counting for radioactivity.

[4] = target: MKK1 (Homo sapiens, UniProt Q02750); assay: MKK1 33P kinase assay; conditions: read-out: MKK1 activity as percentage of control without inhibitor
Chain of MKK1 (Q02750 whole entry, species assumed): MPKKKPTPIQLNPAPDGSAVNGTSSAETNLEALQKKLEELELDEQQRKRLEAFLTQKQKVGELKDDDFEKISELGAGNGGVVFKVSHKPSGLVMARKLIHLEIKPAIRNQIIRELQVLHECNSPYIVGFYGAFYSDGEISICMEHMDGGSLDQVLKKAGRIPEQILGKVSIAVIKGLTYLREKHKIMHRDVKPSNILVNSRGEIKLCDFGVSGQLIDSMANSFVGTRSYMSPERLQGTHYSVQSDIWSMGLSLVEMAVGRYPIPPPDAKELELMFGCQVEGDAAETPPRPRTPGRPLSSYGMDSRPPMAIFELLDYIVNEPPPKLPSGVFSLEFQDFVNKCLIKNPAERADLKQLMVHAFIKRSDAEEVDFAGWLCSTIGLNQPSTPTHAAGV
Method: as §1, §2, §3

[5] = tested on: CK2; assay: CK2 33P kinase assay
Method: as §1, §2, §3

[6] = target: MAPK2/ERK2 (Homo sapiens, UniProt P28482); assay: MAPK2/ERK2 33P kinase assay; conditions: read-out: MAPK2/ERK2 activity as percentage of control without inhibitor
Chain of MAPK2/ERK2 (P28482 whole entry): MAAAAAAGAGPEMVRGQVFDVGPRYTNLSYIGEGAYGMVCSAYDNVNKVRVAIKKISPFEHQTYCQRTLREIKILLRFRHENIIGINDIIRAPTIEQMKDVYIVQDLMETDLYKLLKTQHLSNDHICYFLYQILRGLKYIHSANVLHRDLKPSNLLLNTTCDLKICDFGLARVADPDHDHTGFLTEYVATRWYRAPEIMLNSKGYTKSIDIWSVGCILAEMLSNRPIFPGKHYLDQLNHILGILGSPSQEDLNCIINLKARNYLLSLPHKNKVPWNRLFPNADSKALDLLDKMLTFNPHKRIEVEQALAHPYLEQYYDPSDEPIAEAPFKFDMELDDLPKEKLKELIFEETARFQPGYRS
Method: as §1, §2, §3

Chain of JNK/SAPK1c (P45983 whole entry): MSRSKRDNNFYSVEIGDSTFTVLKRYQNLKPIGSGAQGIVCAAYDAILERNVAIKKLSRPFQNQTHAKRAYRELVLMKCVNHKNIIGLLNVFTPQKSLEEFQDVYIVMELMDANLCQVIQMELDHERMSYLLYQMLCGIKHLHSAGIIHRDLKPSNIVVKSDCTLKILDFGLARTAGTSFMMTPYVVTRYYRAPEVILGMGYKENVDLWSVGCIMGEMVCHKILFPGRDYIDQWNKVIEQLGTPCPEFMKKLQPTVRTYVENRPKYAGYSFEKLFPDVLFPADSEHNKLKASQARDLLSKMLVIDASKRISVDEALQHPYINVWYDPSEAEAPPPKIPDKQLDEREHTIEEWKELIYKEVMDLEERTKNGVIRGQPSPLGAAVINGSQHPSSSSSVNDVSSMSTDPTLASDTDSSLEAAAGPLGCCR

| Compound | remaining activity at 1 µM [1] [%] | remaining activity at 10 µM [1] [%] | remaining activity at 1 µM ([2]; inhibitor 1 μM) [%] | remaining activity at 10 µM ([2]; inhibitor 10 μM) [%] | remaining activity at 1 µM ([3]; inhibitor 1 μM) [%] | remaining activity at 10 µM ([3]; inhibitor 10 μM) [%] | remaining activity at 1 µM ([4]; inhibitor 1 μM) [%] | remaining activity at 10 µM ([4]; inhibitor 10 μM) [%] | CK2 activity as percentage of control without inhibitor ([5]; inhibitor 1 μM) [%] | CK2 activity as percentage of control without inhibitor ([5]; inhibitor 10 μM) [%] | remaining activity at 1 µM ([6]; inhibitor 1 μM) [%] | remaining activity at 10 µM ([6]; inhibitor 10 μM) [%] | other results |
| --- | --- | --- | --- | --- | --- | --- | --- | --- | --- | --- | --- | --- | --- |
| COc1ccc2c3c([nH]c2c1)C(C)=NCC3 [Harmaline] | 99 | 96 | 76 | 113 | 78 | 8 | 47 | 39 | 94 | 88 | 80 | 89 | – |
| CC1=NCCc2c1[nH]c1cc(O)ccc21 [Harmalol] | – | – | 101 | 93 | 25 | 3 | 92 | 66 | 55 | 12 | 88 | 85 | remaining activity at 1 µM ([1]; inhibitor 1 μM): 87%; remaining activity at 10 µM ([1]; inhibitor 10 μM): 84% |
| COc1ccc2c(c1)[nH]c1c(C)nccc12 [Harmine] | 85 | 69 | – | – | – | – | – | – | 82 | 41 | – | – | remaining activity at 1 µM [2]: 96%; remaining activity at 10 µM [2]: 82%; inhibition of DYRK1a, result in words [3]: very potent and specific inhibitor of DYRK1a; remaining activity at 1 µM [3]: 4%; remaining activity at 10 µM [3]: 1%; remaining activity at 1 µM [4]: 76%; remaining activity at 10 µM [4]: 73%; remaining activity at 1 µM [6]: 98%; remaining activity at 10 µM [6]: 89% |
